The results in this text go back to patent US11326131B2, “Cleaning composition” (AMITY LIMITED, priority 2008, dated 2022).

The assay concerns polio virus. The format is cell-based. The following applies: tested on its own.

Structures are written as SMILES.

On to `CCCCCCCCCCCCN(CCCN)CCCN` [dodecyl dipropylene triamine, Dodecyl dipropylene triamine], for which the “effect against the polio virus” value is on record as “no effect”.
